Measured values as given in patent US11285156B2, “Substituted piperazines as KRAS G12C inhibitors” (Amgen Inc., priority 2018, dated 2022).
Read-outs that look alike come from different tables or passages of the source.

Tests used:
[1] = system: Phosphorylation of ERK1/2 in MIA PaCa-2 cells; test: Phospho-ERK1/2 MSD assay in MIA PaCa-2 cells; format: cell-based; details: read-out: p-ERK IC50 (2 h, MiaPaCa-2; μM), 2 h compound treatment, MIA PaCa-2 cells, EGF stimulated
Procedure, shortened: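 Phospho-ERK1/2 measured by MSD electrochemiluminescence kit in RIPA lysates of MIA PaCa-2 cells. Cells were treated with compound titrations for 2 or 4 h at 37 °C, 5% CO2, followed by a 10 min pulse of 10 ng/mL EGF.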

[2] = target: GDP-bound KRAS protein (aa 1-169), containing both G12C and C118A amino acid substitutions (Homo sapiens (Human), UniProt P01116, C118A/G12C); test: Coupled nucleotide exchange assay (SOS-mediated nucleotide exchange, AlphaScreen); format: biochemical; details: 5 min compound pre-incubation; for IC50: read-out: Coupled exchange IC50 (5 min; μM)
[3] = system: Phosphorylation of ERK1/2 in A549 cells; test: Phospho-ERK1/2 MSD assay in A549 cells; format: cell-based; details: read-out: p-ERK IC50 (2 h, A549; μM), 2 h compound treatment, A549 cells, EGF stimulated
Procedure, shortened: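 Dose-response treatment lasted 2 or 4 h in RPMI 1640/10% FBS at 37 °C. EGF-stimulated (10 ng/mL, 10 min) ERK1/2 phosphorylation was then quantified in cell lysates with a Meso Scale Discovery phospho-ERK1/2 assay.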

Chain of GDP-bound KRAS protein (aa 1-169), containing both G12C and C118A amino acid substitutions (P01116 other isoform, or with tags, fused parts or gaps G12C/C118A): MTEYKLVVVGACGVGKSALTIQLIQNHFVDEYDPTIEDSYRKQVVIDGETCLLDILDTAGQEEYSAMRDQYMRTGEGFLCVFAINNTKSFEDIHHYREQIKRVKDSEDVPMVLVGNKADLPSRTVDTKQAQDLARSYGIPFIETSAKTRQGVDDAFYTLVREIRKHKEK

| IC50 ([3]; Homo sapiens, A549, 2 h) | IC50 ([1]; Homo sapiens, MIA PaCa-2, 2 h) | Coupled exchange IC50 (5 min; μM) [2] | SMILES | IC50 [1] | IC50 [2] | IC50 [3] |
| --- | --- | --- | --- | --- | --- | --- |
| > 7.5 µM | – | 0.122 µM | C=CC(=O)N1C[C@H](C)N(c2nc(=O)n(-c3c(C4CC4)ccnc3C(C)C)c3nc(-c4ccccc4C)c(Cl)cc23)C[C@H]1C (single isomer, unassigned) [Example 124-9] | 0.169 µM | – | – |
| – | – | – | C=CC(=O)N1C[C@H](C)N(c2nc(=O)n(-c3c(C(C)C)ccnc3C(C)C)c3nc(-c4ccccc4C(C)C)c(Cl)cc23)C[C@H]1C (single isomer, unassigned) [Example 125-8] | 0.137 µM | 0.113 µM | 5.05 µM |
| – | – | 0.035 µM | C=CC(=O)N1C[C@H](C)N(c2nc(=O)n(-c3c(C4CC4)ccnc3C(C)C)c3nc(-c4ccccc4C)c(Cl)cc23)C[C@H]1C (single isomer, unassigned) [Example 125-9] | 0.048 µM | – | > 7.5 µM |
| – | – | – | C=CC(=O)N1CCN(c2nc(=O)n(-c3c(C(C)C)ccnc3C(C)C)c3nc(-c4ccccc4C)c(Cl)cc23)[C@@H](C)C1 (single isomer, unassigned) [Example 125-10] | 0.068 µM | 0.032 µM | > 7.5 µM |
| – | – | – | C=CC(=O)N1CCN(c2nc(=O)n(CC(C)(C)C)c3nc(-c4ccccc4F)c(Cl)cc23)CC1CC#N (single isomer, unassigned) [Example 145-1-1, 2-[4-[6-Chloro-1-(2,2-dimethylpropyl)-7-(2-fluorophenyl)-2-oxo-pyrido[2,3-d]pyrimidin-4-yl]-1-prop-2-enoyl-piperazin-2-yl]acetonitrile] | 1.3 µM | 1.71 µM | 5.53 µM |
| – | – | – | C=CC(=O)N1CCN(c2nc(=O)n(CC(C)(C)C)c3nc(-c4ccccc4F)c(Cl)cc23)CC1CC#N (single isomer, unassigned) [Example 145-1-2, 2-[4-[6-Chloro-1-(2,2-dimethylpropyl)-7-(2-fluorophenyl)-2-oxo-pyrido[2,3-d]pyrimidin-4-yl]-1-prop-2-enoyl-piperazin-2-yl]acetonitrile] | 1.05 µM | 1.15 µM | 3.94 µM |
| – | – | – | C=CC(=O)N1C[C@H](C)N(c2nc(=O)n3c4nc(c(Cl)cc24)-c2ccccc2C/C=C\Cc2ccccc2-3)C[C@H]1C (single isomer, unassigned) [Example 146-3-4] | 1.26 µM | 7.96 µM | > 7.5 µM |
| > 7.5 µM | 0.118 µM | 0.049 µM | C=CC(=O)N1C[C@H](C)N(c2nc(=O)n(-c3c(C)cc(CC)nc3C(C)C)c3nc(-c4ccccc4F)c(Cl)cc23)C[C@H]1C (single isomer, unassigned) [Example 166-1] | – | – | – |
| > 7.5 µM | 0.079 µM | 0.079 µM | C=CC(=O)N1C[C@H](C)N(c2nc(=O)n(-c3c(C)nc(Cl)nc3C(C)C)c3nc(-c4ccccc4F)c(Cl)cc23)C[C@H]1C (single isomer, unassigned) [Example 191-2] | – | – | – |
| > 7.5 µM | 0.097 µM | 0.048 µM | C=CC(=O)N1C[C@H](C)N(c2nc(=O)n(-c3c(C)nc(N(C)C)nc3C(C)C)c3nc(-c4ccccc4F)c(Cl)cc23)C[C@H]1C (single isomer, unassigned) [Example 196] | – | – | – |
| > 7.5 µM | 0.091 µM | 0.01 µM | C=CC(=O)N1C[C@H](C)N(c2nc(=O)n(-c3c(C)nc(Br)nc3C(C)C)c3nc(-c4ccccc4F)c(Cl)cc23)C[C@H]1C (single isomer, unassigned) [Example 197-2] | – | – | – |
| 5.96 µM | 0.136 µM | 0.075 µM | C=CC(=O)N1C[C@H](C)N(c2nc(=O)n(-c3c(C)nc(C4CC4)nc3C(C)C)c3nc(-c4ccccc4F)c(Cl)cc23)C[C@H]1C (single isomer, unassigned) [Example 198] | – | – | – |
| > 7.5 µM | 0.087 µM | 0.132 µM | C=CC(=O)N1C[C@H](C)N(c2nc(=O)n(-c3c(C)nc(CC)nc3C(C)C)c3nc(-c4ccccc4F)c(Cl)cc23)C[C@H]1C (single isomer, unassigned) [Example 199] | – | – | – |
| > 7.5 µM | 0.094 µM | 0.03 µM | C=CC(=O)N1C[C@H](C)N(c2nc(=O)n(-c3c(C)nc(F)nc3C(C)C)c3nc(-c4ccccc4F)c(Cl)cc23)C[C@H]1C (single isomer, unassigned) [Example 200] | – | – | – |
| 5.05 µM | 0.205 µM | 0.075 µM | C=CC(=O)N1C[C@H](C)N(c2nc(=O)n(-c3c(C)nc(C(=C)C)nc3C(C)C)c3nc(-c4ccccc4F)c(Cl)cc23)C[C@H]1C (single isomer, unassigned) [Example 201] | – | – | – |
| > 7.5 µM | 0.075 µM | 0.071 µM | C=CC(=O)N1C[C@H](C)N(c2nc(=O)n(-c3c(C)nc(C=C)nc3C(C)C)c3nc(-c4ccccc4F)c(Cl)cc23)C[C@H]1C (single isomer, unassigned) [Example 202] | – | – | – |
| > 7.5 µM | 0.243 µM | 0.223 µM | C=CC(=O)N1C[C@H](C)N(c2nc(=O)n(-c3c(C)nc(C(C)C)nc3C(C)C)c3nc(-c4ccccc4F)c(Cl)cc23)C[C@H]1C (single isomer, unassigned) [Example 203] | – | – | – |
| 3.01 µM | 0.091 µM | 0.066 µM | C#Cc1nc(C)c(-n2c(=O)nc(N3C[C@@H](C)N(C(=O)C=C)C[C@@H]3C)c3cc(Cl)c(-c4ccccc4F)nc32)c(C(C)C)n1 (single isomer, unassigned) [Example 204] | – | – | – |
| – | – | – | C=CC(=O)N1C[C@H](C)N(c2nc(=O)n(-c3c(C(C)C)cccc3S(C)(=O)=O)c3nc(-c4ccccc4F)c(Cl)cc23)C[C@H]1C (single isomer, unassigned) [Example 208-2] | 0.106 µM | 0.117 µM | > 7.5 µM |

| SMILES | IC50 ([3]; Homo sapiens, A549, 2 h) | IC50 ([1]; Homo sapiens, MIA PaCa-2, 2 h) | Coupled exchange IC50 (5 min; μM) [2] | IC50 [1] | IC50 [2] | IC50 [3] |
| --- | --- | --- | --- | --- | --- | --- |
| C=CC(=O)N1[C@H](C)CN(c2nc(=O)n(-c3c(C)cc(N)nc3C(C)C)c3nc(-c4c(N)cccc4F)c(F)cc23)C[C@@H]1C (single isomer, unassigned) [Example 123-6] | > 7.5 µM | – | – | 0.133 µM | 0.231 µM | – |
| C=CC(=O)N1C[C@H](C)N(c2nc(=O)n(-c3c(C(C)C)ccnc3C(C)C)c3nc(-c4ccccc4C)c(Cl)cc23)C[C@H]1C (single isomer, unassigned) [Example 124-2] | > 7.5 µM | 0.032 µM | – | – | 0.033 µM | – |
| C=CC(=O)N1C[C@H](C)N(c2nc(=O)n(-c3c(C(C)C)ccnc3C(C)C)c3nc(-c4ccccc4C(F)(F)F)c(Cl)cc23)C[C@H]1C (single isomer, unassigned) [Example 124-3] | > 7.5 µM | 0.032 µM | – | – | 0.028 µM | – |
| C=CC(=O)N1C[C@H](C)N(c2nc(=O)n(-c3c(C(C)C)ccnc3C(C)C)c3nc(-c4c(O)cccc4F)c(Cl)cc23)C[C@H]1C (single isomer, unassigned) [Example 124-4] | > 7.5 µM | 0.016 µM | – | – | 0.022 µM | – |
| C=CC(=O)N1CCN(c2nc(=O)n(-c3c(C(C)C)ccnc3C(C)C)c3nc(-c4ccccc4C)c(Cl)cc23)[C@@H](C)C1 (single isomer, unassigned) [Example 124-10] | > 7.5 µM | 0.049 µM | – | – | 0.046 µM | – |
| C=CC(=O)N1C[C@H](C)N(c2nc(=O)n3c4nc(c(Cl)cc24)-c2ccccc2C/C=C\Cc2cccc(C(C)C)c2-3)C[C@H]1C (single isomer, unassigned) [Example 146-2-2] | 5.48 µM | 0.096 µM | – | – | 0.061 µM | – |
| C=CC(=O)N1C[C@H](C)N(c2nc(=O)n3c4nc(c(Cl)cc24)-c2ccccc2C/C=C/Cc2ccccc2-3)C[C@H]1C (single isomer, unassigned) [Example 146-3-2] | > 7.5 µM | 1.05 µM | – | – | 4.4 µM | – |
| C=CC(=O)N1CCN(c2nc(=O)n(-c3c(C)cc(N)nc3C(C)C)c3nc(-c4ccccc4F)c(Cl)cc23)[C@@H](C)C1 (single isomer, unassigned) [Example 183-2] | > 7.5 µM | 0.043 µM | – | – | 0.058 µM | – |
| C=CC(=O)N1C[C@H](C)N(c2nc(=O)n(-c3c(N)ncnc3C(C)C)c3nc(-c4ccccc4F)c(Cl)cc23)C[C@H]1C (single isomer, unassigned) [Example 189-1] | > 7.5 µM | 0.072 µM | 0.036 µM | – | – | – |
| C=CC(=O)N1C[C@H](C)N(c2nc(=O)n(-c3c(C)ncnc3C(C)C)c3nc(-c4ccccc4F)c(Cl)cc23)C[C@H]1C (single isomer, unassigned) [Example 194-1] | > 7.5 µM | 0.033 µM | 0.067 µM | – | – | – |
| C=CC(=O)N1C[C@H](C)N(c2nc(=O)n(-c3c(C(C)C)cnnc3C(C)C)c3nc(-c4ccccc4F)c(Cl)cc23)C[C@H]1C (single isomer, unassigned) [Example 205-1] | > 7.5 µM | 0.07 µM | 0.098 µM | – | – | – |
| C=CC(=O)N1C[C@H](C)N(c2nc(=O)n(-c3c(C(C)C)cnnc3C(C)C)c3nc(-c4ccccc4F)c(Cl)cc23)C[C@H]1C (single isomer, unassigned) [Example 205-2] | – | – | 0.078 µM | 0.091 µM | – | > 7.5 µM |
